# Results published in the Deep4Chem optical property database.
# Assay: solvent given as SMILES
structure (smiles),measurement,setting,value
c1ccc2cc3cc(-c4cc(-c5nccs5)nc(-c5nccs5)c4)ccc3cc2c1,absorption maximum,in CC#N,305 nm
same,absorption maximum,in CCCCCC,375 nm
same,absorption maximum,in CO,356 nm
same,absorption maximum,in ClC(Cl)Cl,394 nm
CCOC(=O)/N=c1/oc2cc(OC)cc(OC)c2cc1C#N,absorption maximum,in ClCCl,376 nm
CC(=O)Nc1ccc2c3cccc4cccc(c5cccc1c52)c43,absorption maximum,in C1COCCO1,447 nm
same,absorption maximum,in CC#N,441 nm
same,absorption maximum,in CCCCOCCCC,453 nm
same,absorption maximum,in CCOC(C)=O,451 nm
CCn1c2c(-c3ccc(-c4cccs4)s3)cc(C(C)(C)C)cc2c2cc(C(C)(C)C)cc(-c3ccc(-c4cccs4)s3)c21,absorption maximum,in ClCCl,360 nm
O=C1c2ccccc2-c2ccc(Nc3nc(Cl)nc(Cl)n3)c3cccc1c23,absorption maximum,in CC(C)=O,405.02 nm
same,absorption maximum,in CC(C)O,411.86 nm
same,absorption maximum,in CCCCOCCCC,400.96 nm
same,absorption maximum,in CCOC(C)=O,403.06 nm
same,absorption maximum,in CO,410 nm
same,absorption maximum,in Cc1ccccc1,411.02 nm
same,absorption maximum,in Clc1ccccc1,410 nm
same,absorption maximum,in O=C1CCCCC1,410 nm
CC[n+]1c(-c2ccccc2)c2cc(NC(N)=O)ccc2c2ccc(N)cc21,absorption maximum,in O,463 nm
C=CC(=O)Oc1ccc2cc(C=C)c(=O)oc2c1,absorption maximum,in CC#N,320 nm
COc1ccc(-c2cnc3cccc(-c4ccccc4)n23)cc1,absorption maximum,in ClCCl,341 nm
COc1ccc(C2CC(c3ccc(O)cc3)=NN2c2ccc(S(N)(=O)=O)cc2)cc1 (centres undefined),absorption maximum,in C1CCOC1,359 nm
same,absorption maximum,in C1COCCO1,360 nm
same,absorption maximum,in CC#N,358 nm
same,absorption maximum,in CC(C)O,358 nm
same,absorption maximum,in CCO,358 nm
same,absorption maximum,in CCOC(C)=O,358 nm
same,absorption maximum,in CN(C)C=O,361 nm
same,absorption maximum,in CO,357 nm
same,absorption maximum,in CS(C)=O,364 nm
same,absorption maximum,in O,360 nm
Cc1cc(-c2ccc(-c3n(C)c4ccccc4[n+]3C)cc2)ccc1-c1ccc(-c2n(C)c3ccccc3[n+]2C)cc1,absorption maximum,in O,299 nm
c1ccc(-c2nc(-c3ccccc3)nc(-c3ccc(-c4ccc5c(c4)C4(c6ccccc6-c6ccccc64)c4cc(-c6ccc(-c7nc(-c8ccccc8)nc(-c8ccccc8)n7)cc6)ccc4N5c4ccccc4)cc3)n2)cc1,absorption maximum,in c1cc(-c2cccc(-n3c4ccccc4c4ccccc43)c2)cc(-n2c3ccccc3c3ccccc32)c1,405.11 nm
O=C(O)CCCCCn1c2ccccc2c(=O)c2cc(F)ccc21,absorption maximum,in O,420 nm
CCC(CC)COC1=CC2=C3c4cc(OCC(CC)CC)c(-c5ccccc5)n4[B-](F)(F)[n+]4c3n(c3cc(C(C)(C)C)ccc34)[B-](F)(F)[N+]2=C1c1ccccc1,absorption maximum,in C1CCOC1,702 nm
same,absorption maximum,in CC#N,694 nm
same,absorption maximum,in ClCCl,703 nm
CCCC1=Cc2nc1ccc1[nH]c(cc1CCC)c1nc(c3ccccc3c3[nH]c2cc3CCC)C(CCC)=C1,absorption maximum,in Cc1ccccc1,762 nm
CC(C)(C)c1ccc2oc3nc4oc5ccc(-n6c7ccccc7c(=O)c7ccccc76)cc5c4cc3c2c1,absorption maximum,in ClC(Cl)Cl,396 nm
N#Cc1nnn(-c2ccnc3cc(Cl)ccc23)c1N,absorption maximum,in C1CCCCC1,326.01 nm
same,absorption maximum,in C1CCOC1,364.05 nm
same,absorption maximum,in C1COCCO1,365.68 nm
same,absorption maximum,in CC#N,381.45 nm
same,absorption maximum,in CCOC(C)=O,364.01 nm
same,absorption maximum,in CN(C)C=O,376.7 nm
same,absorption maximum,in CO,386.62 nm
same,absorption maximum,in CS(C)=O,368.79 nm
same,absorption maximum,in ClC(Cl)Cl,385 nm
Cc1cc(C)c2c(c1)nc1c(=O)n(C)c(=O)nc-1n2C,absorption maximum,in CC#N,448 nm
C(#Cc1ccc(-n2c3ccccc3c3ccccc32)cc1)c1ccc(-c2nc(-c3ccc(C#Cc4ccc(-n5c6ccccc6c6ccccc65)cc4)cc3)nc(-c3ccc(C#Cc4ccc(-n5c6ccccc6c6ccccc65)cc4)cc3)n2)cc1,absorption maximum,in ClCCl,361 nm
CC(C)c1cccc(C(C)C)c1N1C(=O)c2ccc3c4c(-c5ccc(C(=O)O)cc5)c5ccc6c7c(cc8c9cc(C(=O)O)ccc9c(c9ccc(c2c39)C1=O)c4c8c57)C(=O)N(c1c(C(C)C)cccc1C(C)C)C6=O,absorption maximum,in ClCCl,607 nm
CC(C)(C)c1ccc2c(c1)c1cc(C(C)(C)C)cc3c1n2-c1cc(-c2cccc(F)c2)cc2c1B3c1cc(C(C)(C)C)cc3c4cc(C(C)(C)C)ccc4n-2c13,absorption maximum,in Cc1ccccc1,467.1 nm
N#Cc1ccc(-n2nc(C#N)c(N3CCCC3)n2)cc1,absorption maximum,in CC#N,362 nm
BrCCCCCCCCCCCCOc1cc2ccc3cccc4ccc(c1)c2c34,absorption maximum,in Cc1ccccc1,384 nm
Clc1nnc(Oc2ccc(N(c3ccccc3)c3ccccc3)cc2)nn1,absorption maximum,in ClCCl,525 nm
Cc1cc2c(cc1C)NC(=O)CC(=O)N2,absorption maximum,in CS(C)=O,297 nm
CC(C)[Si](C#Cc1c2ccccc2c(C#C[Si](C(C)C)(C(C)C)C(C)C)c2nc3c(nc12)C1c2ccccc2C3c2ccccc21)(C(C)C)C(C)C,absorption maximum,in CCCCCC,445 nm
Cc1ccc2c(c1)c(C#N)c(C#N)c1cc(C)ccc12,absorption maximum,in ClC(Cl)Cl,343 nm
Nc1nc2ccc(F)cc2[n+]([O-])n1,absorption maximum,in CC#N,415 nm
same,absorption maximum,in O,422 nm
FC(F)(F)c1ccc(-n2c(-c3ccc(N(c4ccc(-c5ccc(N(c6ccc(-c7nc8c9ccccc9c9ccccc9c8n7-c7ccc(C(F)(F)F)cc7)cc6)c6ccc(-c7nc8c9ccccc9c9ccccc9c8n7-c7ccc(C(F)(F)F)cc7)cc6)cc5)cc4)c4ccc(-c5nc6c7ccccc7c7ccccc7c6n5-c5ccc(C(F)(F)F)cc5)cc4)cc3)nc3c4ccccc4c4ccccc4c32)cc1,absorption maximum,in ClCCl,376 nm
N#Cc1nn(-c2cc(F)cc(F)c2)nc1N1CCCC1,absorption maximum,in CC#N,350 nm
CC1=[N+]2C(=C(c3ccc(C=O)cc3)c3ccc(C)n3[B-]2(F)F)C=C1c1cc2n(c1)[B-](F)(F)[N+]1=CC=CC1=C2c1c(C)cc(C)cc1C,absorption maximum,in C1CCCCC1,604.5 nm
same,absorption maximum,in CCOC(C)=O,604.5 nm
COc1nc(Nc2ccc3cc4ccccc4cc3c2)nc(OC)n1,absorption maximum,in C1COCCO1,394 nm
same,absorption maximum,in CC#N,395 nm
same,absorption maximum,in CCCCOCCCC,398 nm
same,absorption maximum,in CCOC(C)=O,395 nm
CN(C)CCNCc1c2ccccc2cc2ccccc12,absorption maximum,in C1CCCCC1,368 nm
same,absorption maximum,in C1CCOC1,366 nm
same,absorption maximum,in CC#N,365 nm
same,absorption maximum,in CC(C)=O,365 nm
same,absorption maximum,in CCO,366 nm
same,absorption maximum,in CN(C)C=O,363 nm
same,absorption maximum,in CO,364 nm
same,absorption maximum,in ClC(Cl)Cl,367 nm
N#Cc1ccc(N/N=C/c2cc(Cl)ccc2O)cc1,absorption maximum,in CO,354 nm
CCOC(=O)CSc1nc2c(c(C#N)c1C#N)CCCCCC2,absorption maximum,in c1ccccc1,360 nm
Cc1c(COC(=O)Cc2ccccc2)n2c(OCC(=O)Cc3ccccc3)c(C)c(=O)n2c1=O,absorption maximum,in CCO,379 nm
c1ccc(Nc2nc(Nc3ccccc3)nc(Nc3ccc4ccc5cccc6ccc3c4c56)n2)cc1,absorption maximum,in CC#N,342 nm
same,absorption maximum,in CCCCOCCCC,342 nm
same,absorption maximum,in CO,340 nm
O=S(=O)(/N=c1\oc2cccc3c4c(-c5ccccc5)oc5cccc(c(c1-c1ccccc1)c23)c54)C(F)(F)F,absorption maximum,in CCCCCC,458 nm
same,absorption maximum,in CO,456 nm
same,absorption maximum,in CS(C)=O,463 nm
same,absorption maximum,in ClC(Cl)Cl,460 nm
same,absorption maximum,in ClCCl,463 nm
CNc1ncc2nc(C#N)n(Cc3ccccc3)c2n1,absorption maximum,in C1COCCO1,342 nm
same,absorption maximum,in CC#N,342 nm
same,absorption maximum,in CO,342 nm
same,absorption maximum,in ClCCl,341 nm
CCOc1ccc(/C=C/c2nc(N3CCOCC3)c3c([n+]2[O-])CCCC3)cc1,absorption maximum,in ClCCl,384 nm
O=P1(c2ccccc2)C(c2cc(C(F)(F)F)cc(C(F)(F)F)c2)=Cc2c3ccc4cccc5ccc(c6cc(-c7ccc(N(c8ccccc8)c8ccccc8)cc7)n1c26)c3c45 (centres undefined),absorption maximum,in C1CCCCC1,434 nm
same,absorption maximum,in C1CCOC1,437 nm
same,absorption maximum,in C1COCCO1,436 nm
same,absorption maximum,in CC#N,434 nm
same,absorption maximum,in CC(C)=O,435 nm
same,absorption maximum,in CO,444 nm
same,absorption maximum,in Cc1ccccc1,441 nm
same,absorption maximum,in ClC(Cl)Cl,441 nm
same,absorption maximum,in ClCCl,437 nm
COc1ccc(N(c2ccc(OC)cc2)c2ccc3c4cccc5c(N(c6ccc(OC)cc6)c6ccc(OC)cc6)ccc(c6cccc2c63)c54)cc1,absorption maximum,in C1CCCCC1,519 nm
same,absorption maximum,in C1CCOC1,515 nm
same,absorption maximum,in CC#N,508 nm
same,absorption maximum,in Cc1ccccc1,519 nm
same,absorption maximum,in ClCCl,514 nm
COC(=O)c1ccc(/C=C2\C=C(c3ccc([N+](=O)[O-])cc3)N(CC(C)C)C2=O)cc1,absorption maximum,in C1COCCO1,442 nm
c1ccc2c(c1)Cc1c-2sc2c1Cc1ccccc1-2,absorption maximum,in C1CCOC1,354 nm
C(=C\c1cc(/C=C/c2ccccc2)nc(/C=C/c2ccccc2)n1)/c1ccccc1,absorption maximum,in ClCCl,312 nm
C(#Cc1cccc2cc(-c3ccccc3)c3cc(-c4cc[b-]5c(c4)c(-c4ccccc4)cc4cccc(C#Cc6ccccc6)[n+]54)cc[b-]3[n+]12)c1ccccc1,absorption maximum,in C1CCCCC1,546 nm
CCCCCCC1(CCCCCC)c2cc(-c3ccc(-c4ccc(-c5ccc(-c6ccc7c(c6)C(CCCCCC)(CCCCCC)c6cc(-n8c9ccc(-n%10c%11ccccc%11c%11ccccc%11%10)cc9c9cc(-n%10c%11ccccc%11c%11ccccc%11%10)ccc98)ccc6-7)s5)c5nsnc45)s3)ccc2-c2ccc(-n3c4ccc(-n5c6ccccc6c6ccccc65)cc4c4cc(-n5c6ccccc6c6ccccc65)ccc43)cc21,absorption maximum,in ClCCl,514 nm
CCCCCCCCC1(CCCCCCCC)c2cc(C#Cc3ccc(N(c4ccccc4)c4ccccc4)cc3)ccc2-c2ccc(C=O)cc21,absorption maximum,in C1CCOC1,378 nm
same,absorption maximum,in C1COCCO1,381 nm
same,absorption maximum,in CC#N,378 nm
same,absorption maximum,in CC(C)=O,373 nm
same,absorption maximum,in CCOC(C)=O,376 nm
same,absorption maximum,in CN(C)C=O,380 nm
same,absorption maximum,in CS(C)=O,381 nm
same,absorption maximum,in Cc1ccccc1,388 nm
same,absorption maximum,in ClC(Cl)Cl,386 nm
same,absorption maximum,in ClCCl,384 nm
F[B-]1(F)n2c(-c3ccccc3)cc(-c3ccccc3)c2C(c2ccccc2)=C2C(c3ccccc3)=CC(c3ccccc3)=[N+]21,absorption maximum,in C1CCOC1,561 nm
CCOC(=O)C(C(=O)OCC)C1=[N+]2C(=C(c3ccc(C)cc3)c3ccc(C(C(=O)OCC)C(=O)OCC)n3[B-]2(F)F)C=C1,absorption maximum,in C1CCCCC1,515 nm
same,absorption maximum,in C1CCOC1,512 nm
same,absorption maximum,in CCOC(C)=O,510 nm
same,absorption maximum,in CO,509 nm
same,absorption maximum,in Cc1ccccc1,514 nm
same,absorption maximum,in ClC(Cl)Cl,513 nm
CC(C)(C)C#Cc1cc2c(C#CC(C)(C)C)c(C#CC(C)(C)C)c3cc(C#CC(C)(C)C)cc4c(C#CC(C)(C)C)c(C#CC(C)(C)C)c(c1)c2c34,absorption maximum,in ClCCl,383 nm
